Among the data in patent US20240174727A1, “LONG-ACTING NATRIURETIC PEPTIDES AND USES THEREOF” (Eli Lilly and Company, priority 2022, published 2024) are EC50 values, retold here.

Where two headings read alike, the source gives them in different places. Numbered stars: 1 amine (or outer) side, 2 acyl side, 3 side chain; on linkers, the order of the positions; unused ones are H or OH. Bridge positions count the residues as written; N and C are the ends. Square brackets hold non-standard residues; d marks the D form. Peptide text beside a SMILES is read from it. * marks the point of attachment. PEG24 = NCCOCCOCCOCCOCCOCCOCCOCCOCCOCCOCCOCCOCCOCCOCCOCCOCCOCCOCCOCCOCCOCCOCCOCCOCCC(=O)O; C20 diacid = O=C(O)CCCCCCCCCCCCCCCCCCC(=O)*; γGlu = O=C(O)[C@H](CCC(=O)[*:2])N[*:1]; 4Pal = N[C@@H](Cc1ccncc1)C(=O)O; Aib = CC(C)(N)C(=O)O; CH2 = C([*:1])[*:2]; βAla = NCCC(=O)O

The assay deals with T1, human NPRA (Homo sapiens, UniProt P16066).
T1 construct: Full-Length cDNA Cloning and Generation of Cell Lines Overexpressing Natriuretic Peptide Receptors (NPRs); expressed in transfected cells; host or cells: Jump-in T-Rex HEK293 cells, pJTI R4 CMV-TO MCS pA vector, tetracycline induction
T1 sequence (P16066 33-1061): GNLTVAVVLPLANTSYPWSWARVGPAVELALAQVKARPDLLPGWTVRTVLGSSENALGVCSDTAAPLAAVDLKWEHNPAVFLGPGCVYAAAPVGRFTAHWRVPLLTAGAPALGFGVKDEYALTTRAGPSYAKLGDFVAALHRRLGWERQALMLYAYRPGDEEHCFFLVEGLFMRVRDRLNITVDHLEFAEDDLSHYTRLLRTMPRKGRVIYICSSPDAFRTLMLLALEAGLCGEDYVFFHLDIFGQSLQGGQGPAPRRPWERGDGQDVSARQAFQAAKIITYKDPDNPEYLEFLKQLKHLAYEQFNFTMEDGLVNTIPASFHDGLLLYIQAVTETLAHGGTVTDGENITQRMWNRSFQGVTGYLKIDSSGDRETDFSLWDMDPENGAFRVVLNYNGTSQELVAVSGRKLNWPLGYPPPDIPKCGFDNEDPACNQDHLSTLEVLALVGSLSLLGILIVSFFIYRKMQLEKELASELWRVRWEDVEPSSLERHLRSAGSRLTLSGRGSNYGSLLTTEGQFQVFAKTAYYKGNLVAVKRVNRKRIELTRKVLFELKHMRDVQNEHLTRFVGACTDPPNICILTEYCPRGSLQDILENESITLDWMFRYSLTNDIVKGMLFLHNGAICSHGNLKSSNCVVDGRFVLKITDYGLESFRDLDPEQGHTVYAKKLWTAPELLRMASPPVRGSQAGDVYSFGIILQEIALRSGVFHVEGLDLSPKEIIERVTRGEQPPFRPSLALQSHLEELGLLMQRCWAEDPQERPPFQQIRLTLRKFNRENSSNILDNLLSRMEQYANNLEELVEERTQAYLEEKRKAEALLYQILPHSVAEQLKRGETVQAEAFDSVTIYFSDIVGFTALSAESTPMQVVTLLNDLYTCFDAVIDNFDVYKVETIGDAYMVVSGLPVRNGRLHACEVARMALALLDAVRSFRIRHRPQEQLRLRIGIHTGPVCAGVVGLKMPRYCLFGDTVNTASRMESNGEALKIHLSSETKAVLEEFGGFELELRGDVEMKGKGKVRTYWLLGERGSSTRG
Kind of assay: Human NPRA cGMP activity assay (HTRF) in HEK293 cells overexpressing NPRA. Format: cell-based. The procedure: All sequences were verified by full-length sequencing performed by ACGT DNA Sequencing Services (Wheeling, IL). The target cDNA was cloned into pJTI R4 CMV-TO MCS pA vector and then co-transfected with pJT1R4 Int vector into Jump-in™ T-Rex™ HEK293 cells for mammalian inducible expression using Jump-in™ T-Rex™ HEK293 kit and Lipofectamine LTX and Plus Reagent following manufacturer's protocols, as briefly described below.
Jump-in™ T-Rex™ HEK293 cells were plated in a BioCOAT® poly-D-lysine coated 6-well plate (Becton Dickinson, cat no. 354413) at 1 million cells/well in 2 mL culture medium and incubated for 18 h at 37° C. and 5% CO2 to 50-70% confluence. A cDNA mix was made in a 50 mL tube by adding 1.5 μg target cDNA, 1.5 μg pJT1R4 Int vector, 3 μL Plus Reagent, and 300 μL Opti-MEM I sequentially into the tube. A reagent mix was made in a separate 50 mL tube by adding 7.5 μL Lipofectamine LTX into 300 μL Opti-MEM I. The mixtures were incubated for 5 min at room temperature. The cDNA mix was then transferred into the reagent mix, mixed well, and incubated for additional 30 min at room temperature. A 500 μL of cDNA/Lipofectamine complex was then transferred to the wells of the cell plate in which the culture medium was changed to 2 mL of transfection medium containing DMEM with 4.5 g/L D-glucose supplemented with 10% FBS-HI and 20 mM HEPES. Transfected cells were cultured for 48 h in an incubator at 37° C. and 5% CO2. A subclone or pool from each overexpressing cell line was maintained in culture medium with the addition of 2 mg/mL G418 sulfate for the clone selection based on its built-in resistance to G418 sulfate for at least 3 weeks with medium changed every 2-3 days.
NPRs were overexpressed in T-Rex™ HEK293 cells following the induction with 300 ng/mL tetracycline in culture medium for 48 h. Induced cell lines in an exponential growth phase were treated with 0.05% trypsin-EDTA for a few seconds at room temperature, harvested in cell medium containing FBS to neutralize the trypsin, counted, and cryopreserved at the density of 2 million cells/mL in cell preservation solution containing FBS-HI with 5% DMSO. Cryopreserved cells were stored at −80° C. for a few days prior to transferring to a liquid nitrogen tank. Induced cell lines were then used for suspension assays to measure the activity of polypeptides to stimulate cGMP production in cGMP assays or for the preparation of cell membranes to measure the binding activity of polypeptides in competitive radioligand binding assays, as described below.
Test polypeptides were added starting at 10 μM concentration and at 10-fold decreasing concentrations to obtain 8-point concentration-response curves (i.e., 10 μM to 1 pM). The quantity of cGMP generated was detected using HTRF® technology and normalized to maximum amount produced by 100 nM amidated rat ANP and the minimum amount produced by assay buffer. Detailed steps are outlined below.
Stock solutions of test polypeptides (2 mM) dissolved in DMSO were first diluted 100-fold in assay buffer containing HBSS with Ca^2+ and Mg^2+, 5 mM HEPES, 0.5 mM IBMX, and 0.1% BSA or 0.1% casein (pH 7.4). The polypeptides were further serially diluted in 1:10 dilution steps in assay buffer containing 0.1% BSA or 0.1% casein to generate 8-point 2× working stock solutions ranging from 20 μM to […].
A 10 μL cell suspension containing 4000 cells was plated in Costar® half-area white opaque 96-well plates (Corning, cat no. 3693). Then 10 μL of assay buffer (basal activity), 200 nM of amidated rat ANP (maximum activity) or 2× working stock solutions of test polypeptides were transferred into the plate. Final concentration of DMSO in each well was 0.5%. The plate was shaken for 15 sec and then incubated for 40 min at room temperature.
The cGMP generated was measured using cGMP kit following the manufacturer's directions, as described below.

Setting [1] is: assay buffer with 0.1% BSA, read-out: cGMP Assay (EC50, pM) w/BSA hNPRA.
Where [2] appears, read: assay buffer with 0.1% casein, read-out: cGMP Assay (EC50, pM) w/Casein hNPRA.
[3] abbreviates: cGMP Assay (EC50, pM) w/Casein hNPRA, assay buffer with 0.1% casein.

As for `CC[C@H](C)[C@@H]1NC(=O)[C@H](CCCNC(=N)N)NC(=O)[C@H](CC(=O)O)NC(=O)[C@H]([C@@H](C)CC)NC(=O)[C@H](CCCNC(=N)N)NC(=O)CNC(=O)[C@H](Cc2ccncc2)NC(=O)[C@H](Cc2ccccc2)NC(=O)[C@@H](NC(=O)[C@H](CO)NC(=O)[C@H](CO)NC(=O)[C@H](CCCNC(=N)N)NC(=O)[C@H](CCCNC(=N)N)NC(=O)[C@H](CC(C)C)NC(=O)[C@H](CO)NC(=O)CNC(=O)[C@H](CCCCN)NC(=O)[C@H](CCC(=O)O)NC(=O)[C@H](CCCCN)NC(=O)[C@H](CCC(=O)O)NC(=O)[C@H](CCCCN)NC(=O)[C@H](CCC(=O)O)NC(=O)CC[C@H](NC(=O)CCCCCCCCCCCCCCCCCCC(=O)O)C(=O)O)CSSC[C@@H](C(=O)N[C@@H](CC(N)=O)C(=O)N[C@@H](CO)C(=O)N[C@@H](Cc2ccccc2)C(=O)N[C@@H](CCCNC(=N)N)C(=O)N[C@@H](Cc2ccc(O)cc2)C(N)=O)NC(=O)CNC(=O)[C@H](CC(C)C)NC(=O)CNC(=O)[C@H](CO)NC(=O)[C@H](CCC(N)=O)NC(=O)[C@H](C)NC(=O)CNC1=O` [Example 13] ({C20 diacid-γGlu}-EKEKEKGSLRRSSCF[4Pal]GRIDRIGAQSGLGCNSFRY-NH2; disulfide 14-30), under setting [1], the EC50 worked out at 145000 pM.

“{C20 diacid-γGlu}-EKEKEKG[PEG24]S[4Pal]RRSSCFGGRIDRIGHQSGLGCPSFRHGGPPS[Aib]KPPPK-NH2 (linker 15-31 via CH2) [Example 84]”: under setting [2], the EC50 came out at 1010 pM. Turning to `CC[C@H](C)[C@@H]1NC(=O)[C@H](CCCNC(=N)N)NC(=O)[C@H](CC(=O)O)NC(=O)[C@H]([C@@H](C)CC)NC(=O)[C@H](CCCNC(=N)N)NC(=O)CNC(=O)[C@H](Cc2c[nH]cn2)NC(=O)[C@H](Cc2ccccc2)NC(=O)[C@@H](NC(=O)[C@H](CO)NC(=O)[C@H](CO)NC(=O)[C@H](CCCNC(=N)N)NC(=O)[C@H](CCCNC(=N)N)NC(=O)[C@H](Cc2c[nH]cn2)NC(=O)[C@H](CO)NC(=O)CNC(=O)[C@H](CCCCN)NC(=O)[C@H](CCC(=O)O)NC(=O)[C@H](CCCCN)NC(=O)[C@H](CCC(=O)O)NC(=O)[C@H](CCCCN)NC(=O)[C@H](CCC(=O)O)NC(=O)CC[C@H](NC(=O)CCCCCCCCCCCCCCCCCCC(=O)O)C(=O)O)CSSC[C@@H](C(=O)N[C@@H](CC(N)=O)C(=O)N[C@@H](CO)C(=O)N[C@@H](Cc2ccccc2)C(=O)N[C@@H](CCCNC(=N)N)C(=O)N[C@@H](Cc2c[nH]cn2)C(N)=O)NC(=O)CNC(=O)[C@H](CC(C)C)NC(=O)CNC(=O)[C@H](CO)NC(=O)[C@H](CCC(N)=O)NC(=O)[C@H](C)NC(=O)[C@H](Cc2c[nH]cn2)NC1=O` [Example 16] ({C20 diacid-γGlu}-EKEKEKGSHRRSSCFHGRIDRIHAQSGLGCNSFRH-NH2; disulfide 14-30), under setting [2], the EC50 came to 807 pM. Regarding “{C20 diacid-γGlu}-EKEKEKGS[4Pal]RRSSCFGGRIDRIGHQSGLGCPSFRHGGPPS[Aib]KPPPK-NH2 (linker 14-30 via CH2) [Example 68]”, the EC50 under setting [1] was determined as 96800 pM. “{C20 diacid-γGlu}-EKEKEKGEK[βAla]RSSCFGGRIDRIGHYSGLGCPSLRHGGPSSGAPPPS-NH2 (linker 14-30 via CH2) [Example 63]” registered an EC50 under setting [3] of 1090 pM.

Take `CC[C@H](C)[C@@H]1NC(=O)[C@H](CCCNC(=N)N)NC(=O)[C@H](CC(=O)O)NC(=O)[C@H]([C@@H](C)CC)NC(=O)[C@H](CCCNC(=N)N)NC(=O)CNC(=O)CNC(=O)[C@H](Cc2ccccc2)NC(=O)[C@@H](NC(=O)[C@H](CO)NC(=O)[C@H](CO)NC(=O)[C@H](CCCNC(=N)N)NC(=O)[C@H](CCCNC(=N)N)NC(=O)[C@H](Cc2c[nH]cn2)NC(=O)[C@H](CO)NC(=O)CNC(=O)[C@H](CCCCN)NC(=O)[C@H](CCC(=O)O)NC(=O)[C@H](CCCCN)NC(=O)[C@H](CCC(=O)O)NC(=O)[C@H](CCCCN)NC(=O)[C@H](CCC(=O)O)NC(=O)CC[C@H](NC(=O)CCCCCCCCCCCCCCCCCCC(=O)O)C(=O)O)CSSC[C@@H](C(=O)N2CCC[C@H]2C(=O)N[C@@H](CO)C(=O)N[C@@H](Cc2ccccc2)C(=O)N[C@@H](CCCNC(=N)N)C(=O)N[C@@H](Cc2c[nH]cn2)C(N)=O)NC(=O)CNC(=O)[C@H](CC(C)C)NC(=O)CNC(=O)[C@H](CO)NC(=O)[C@H](CCC(N)=O)NC(=O)[C@H](C)NC(=O)CNC1=O` [Example 18] ({C20 diacid-γGlu}-EKEKEKGSHRRSSCFGGRIDRIGAQSGLGCPSFRH-NH2; disulfide 14-30): the EC50 under setting [2] turned out to be 460 pM. The same measure, in the same setting: next, `CC[C@H](C)[C@@H]1NC(=O)[C@H](CCCNC(=N)N)NC(=O)[C@H](CC(=O)O)NC(=O)[C@H]([C@@H](C)CC)NC(=O)[C@H](CCCNC(=N)N)NC(=O)CNC(=O)CNC(=O)[C@H](Cc2ccccc2)NC(=O)[C@@H](NC(=O)[C@H](CO)NC(=O)[C@H](CO)NC(=O)[C@H](CCCNC(=N)N)NC(=O)[C@H](CCCNC(=N)N)NC(=O)[C@H](Cc2ccncc2)NC(=O)[C@H](CO)NC(=O)CNC(=O)[C@H](CCCCN)NC(=O)[C@H](CCC(=O)O)NC(=O)[C@H](CCCCN)NC(=O)[C@H](CCC(=O)O)NC(=O)[C@H](CCCCN)NC(=O)[C@H](CCC(=O)O)NC(=O)CC[C@H](NC(=O)CCCCCCCCCCCCCCCCCCC(=O)O)C(=O)O)CSSC[C@@H](C(=O)N[C@@H](CC(N)=O)C(=O)N[C@@H](CO)C(=O)N[C@@H](Cc2ccccc2)C(=O)N[C@@H](CCCNC(=N)N)C(=O)N[C@@H](Cc2ccncc2)C(N)=O)NC(=O)CNC(=O)[C@H](CC(C)C)NC(=O)CNC(=O)[C@H](CO)NC(=O)[C@H](CCC(N)=O)NC(=O)[C@H](C)NC(=O)CNC1=O` [Example 15] ({C20 diacid-γGlu}-EKEKEKGS[4Pal]RRSSCFGGRIDRIGAQSGLGCNSFR[4Pal]-NH2; disulfide 14-30): 912 pM. Under setting [3], “{C20 diacid-γGlu}-EKEKEKGEKGRSSCFGGRIDRIGHYSGLGCPSLRHGGPSSGAPPPS-NH2 (disulfide 14-30) [Example 51]” displayed an EC50 of 361 pM.
